We go through eleven compounds from US8940742B2, “Heterocyclic compounds and uses thereof” (Infinity Pharmaceuticals, Inc., priority 2012, dated 2015).

One experiment concerns the target T1, PI3K γ (Homo sapiens, UniProt P48736).
T1 construct: purchased Millipore
In words: PI3-Kinase Promega ADP-Glo Max assay. Format: biochemical. The conditions noted are these: 40 nM kinase, 3 mM ATP, 500 uM diC8-PtdInsP. In a few lines: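 Human class I PI3K reactions ran 2 hours at room temperature, followed by stop solution (40 min) and detection mix (1 hour) before luminescence reading.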

A further experiment addresses T2, PI3K δ (Homo sapiens, UniProt O00329).
T2 construct: purchased Millipore
In words: PI3-Kinase Promega ADP-Glo Max assay. Format: biochemical. The conditions noted are these: 20 nM kinase, 3 mM ATP, 500 uM diC8-PtdInsP. In a few lines:
(§1)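 Human class I PI3K (20 nM α or δ, 40 nM β) pre-incubated 15 min with compound in HEPES pH 7.4 buffer with MgCl2, then reacted 2 h at room temperature with 3 mM ATP and 500 uM diC8-PtdInsP. ADP measured by ADP-Glo Max luminescence; % inhibition fitted to 4-parameter logistic for IC50.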

For the next experiment, the target named is T3, PI3K α (Homo sapiens, UniProt P42336).
T3 construct: purchased Millipore
T3 sequence (P42336 whole entry): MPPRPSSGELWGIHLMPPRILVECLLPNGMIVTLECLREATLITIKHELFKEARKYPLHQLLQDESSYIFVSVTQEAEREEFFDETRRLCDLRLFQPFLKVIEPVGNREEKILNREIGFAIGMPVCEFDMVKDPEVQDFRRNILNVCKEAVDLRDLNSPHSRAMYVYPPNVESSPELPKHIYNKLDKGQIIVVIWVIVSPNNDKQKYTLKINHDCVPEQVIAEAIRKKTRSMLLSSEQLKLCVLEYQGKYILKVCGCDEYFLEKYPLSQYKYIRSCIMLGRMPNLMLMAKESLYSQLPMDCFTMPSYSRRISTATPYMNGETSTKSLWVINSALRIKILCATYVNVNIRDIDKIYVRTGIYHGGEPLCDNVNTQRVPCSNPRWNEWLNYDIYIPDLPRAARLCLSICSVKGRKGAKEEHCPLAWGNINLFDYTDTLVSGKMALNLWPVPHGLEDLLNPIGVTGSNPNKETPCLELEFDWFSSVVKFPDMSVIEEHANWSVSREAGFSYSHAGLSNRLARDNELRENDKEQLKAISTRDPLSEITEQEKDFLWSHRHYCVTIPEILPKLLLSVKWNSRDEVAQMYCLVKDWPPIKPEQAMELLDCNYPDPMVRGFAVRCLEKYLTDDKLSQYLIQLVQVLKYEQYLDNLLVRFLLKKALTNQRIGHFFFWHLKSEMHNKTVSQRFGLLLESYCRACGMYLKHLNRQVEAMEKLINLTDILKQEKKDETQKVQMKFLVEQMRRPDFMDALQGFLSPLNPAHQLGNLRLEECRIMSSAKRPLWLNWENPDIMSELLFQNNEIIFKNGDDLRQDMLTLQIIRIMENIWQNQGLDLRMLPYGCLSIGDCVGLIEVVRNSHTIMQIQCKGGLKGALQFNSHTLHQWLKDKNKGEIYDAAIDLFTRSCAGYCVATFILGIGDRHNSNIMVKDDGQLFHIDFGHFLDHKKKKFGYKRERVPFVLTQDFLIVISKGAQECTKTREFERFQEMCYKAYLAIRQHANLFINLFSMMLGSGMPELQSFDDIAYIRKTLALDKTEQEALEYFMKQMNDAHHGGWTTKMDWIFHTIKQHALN
T3 sequence (P27986 whole entry partner): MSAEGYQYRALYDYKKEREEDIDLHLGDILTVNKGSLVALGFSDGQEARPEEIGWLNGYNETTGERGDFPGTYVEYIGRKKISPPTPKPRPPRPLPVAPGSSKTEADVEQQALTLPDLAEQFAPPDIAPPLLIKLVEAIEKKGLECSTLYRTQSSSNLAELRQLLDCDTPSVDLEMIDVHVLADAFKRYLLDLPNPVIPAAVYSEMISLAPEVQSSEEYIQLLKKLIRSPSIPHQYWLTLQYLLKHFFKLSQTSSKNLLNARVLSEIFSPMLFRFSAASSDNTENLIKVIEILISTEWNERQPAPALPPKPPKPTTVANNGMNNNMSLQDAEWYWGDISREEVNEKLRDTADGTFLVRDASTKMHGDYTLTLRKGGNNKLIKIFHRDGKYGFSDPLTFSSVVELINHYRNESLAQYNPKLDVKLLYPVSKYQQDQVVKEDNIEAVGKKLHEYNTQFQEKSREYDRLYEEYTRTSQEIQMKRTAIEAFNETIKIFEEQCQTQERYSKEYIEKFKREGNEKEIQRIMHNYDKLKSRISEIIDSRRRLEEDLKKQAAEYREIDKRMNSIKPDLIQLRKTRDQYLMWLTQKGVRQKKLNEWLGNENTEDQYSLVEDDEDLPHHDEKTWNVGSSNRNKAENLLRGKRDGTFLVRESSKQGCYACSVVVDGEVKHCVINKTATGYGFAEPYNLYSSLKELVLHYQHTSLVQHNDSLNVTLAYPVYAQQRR
The experiment can be described thus: PI3-Kinase Promega ADP-Glo Max assay. The conditions noted are these: 20 nM kinase, 3 mM ATP, 500 uM diC8-PtdInsP. Format: biochemical. In a few lines:
as §1

The next experiment deals with T4, PI3K β (Homo sapiens, UniProt P42338).
T4 construct: purchased Millipore
T4 sequence (P42338 whole entry): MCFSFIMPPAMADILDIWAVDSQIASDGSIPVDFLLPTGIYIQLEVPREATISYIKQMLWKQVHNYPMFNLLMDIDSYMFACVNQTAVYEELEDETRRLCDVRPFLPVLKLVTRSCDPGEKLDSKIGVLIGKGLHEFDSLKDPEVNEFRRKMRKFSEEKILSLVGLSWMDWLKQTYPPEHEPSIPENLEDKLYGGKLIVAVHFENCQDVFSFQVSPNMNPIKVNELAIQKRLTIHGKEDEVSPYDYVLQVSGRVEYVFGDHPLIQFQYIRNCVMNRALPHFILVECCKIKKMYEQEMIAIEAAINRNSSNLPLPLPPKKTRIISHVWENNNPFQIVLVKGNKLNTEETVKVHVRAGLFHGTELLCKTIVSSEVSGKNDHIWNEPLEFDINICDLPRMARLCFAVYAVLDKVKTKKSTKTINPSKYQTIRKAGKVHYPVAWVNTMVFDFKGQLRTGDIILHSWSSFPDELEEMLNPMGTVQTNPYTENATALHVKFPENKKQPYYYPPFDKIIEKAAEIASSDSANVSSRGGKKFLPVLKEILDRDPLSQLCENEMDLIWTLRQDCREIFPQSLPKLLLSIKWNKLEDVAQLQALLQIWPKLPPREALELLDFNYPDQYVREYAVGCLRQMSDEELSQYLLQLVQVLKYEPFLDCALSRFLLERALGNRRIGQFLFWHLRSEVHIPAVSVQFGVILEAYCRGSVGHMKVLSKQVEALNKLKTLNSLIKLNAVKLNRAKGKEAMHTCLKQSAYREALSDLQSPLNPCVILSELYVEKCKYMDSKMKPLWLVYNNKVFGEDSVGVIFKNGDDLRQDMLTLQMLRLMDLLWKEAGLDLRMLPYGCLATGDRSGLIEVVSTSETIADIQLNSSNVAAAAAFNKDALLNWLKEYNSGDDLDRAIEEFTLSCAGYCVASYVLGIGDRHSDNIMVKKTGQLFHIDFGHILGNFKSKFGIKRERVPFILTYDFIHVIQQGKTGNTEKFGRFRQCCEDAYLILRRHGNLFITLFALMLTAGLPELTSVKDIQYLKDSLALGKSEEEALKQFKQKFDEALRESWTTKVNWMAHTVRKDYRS
T4 sequence (P27986 whole entry partner): as the sequence (P27986 whole entry partner) above
The experiment can be described thus: PI3-Kinase Promega ADP-Glo Max assay. Format: biochemical. The conditions noted are these: 40 nM kinase, 3 mM ATP, 500 uM diC8-PtdInsP. In a few lines:
as §1

The next experiment addresses RAJI p110 δ (Homo sapiens, UniProt O00329). The experiment can be described thus: RAJI p110 δ cellular assay (phospho-AKT).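 Also: potency based on lowered phosphorylated AKT in RAJI cells, as a readout of PI3K-δ dependent B-cell receptor signaling.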
In the next experiment the target is T5, Raw264.7 p110 γ (Mus musculus, UniProt Q9JHG7).
T5 construct: reduction of phospho-AKT in stimulated RAW 264.7 cells; endogenous in cells; host or cells: RAW264.7 macrophages
T5 sequence (Q9JHG7 whole entry): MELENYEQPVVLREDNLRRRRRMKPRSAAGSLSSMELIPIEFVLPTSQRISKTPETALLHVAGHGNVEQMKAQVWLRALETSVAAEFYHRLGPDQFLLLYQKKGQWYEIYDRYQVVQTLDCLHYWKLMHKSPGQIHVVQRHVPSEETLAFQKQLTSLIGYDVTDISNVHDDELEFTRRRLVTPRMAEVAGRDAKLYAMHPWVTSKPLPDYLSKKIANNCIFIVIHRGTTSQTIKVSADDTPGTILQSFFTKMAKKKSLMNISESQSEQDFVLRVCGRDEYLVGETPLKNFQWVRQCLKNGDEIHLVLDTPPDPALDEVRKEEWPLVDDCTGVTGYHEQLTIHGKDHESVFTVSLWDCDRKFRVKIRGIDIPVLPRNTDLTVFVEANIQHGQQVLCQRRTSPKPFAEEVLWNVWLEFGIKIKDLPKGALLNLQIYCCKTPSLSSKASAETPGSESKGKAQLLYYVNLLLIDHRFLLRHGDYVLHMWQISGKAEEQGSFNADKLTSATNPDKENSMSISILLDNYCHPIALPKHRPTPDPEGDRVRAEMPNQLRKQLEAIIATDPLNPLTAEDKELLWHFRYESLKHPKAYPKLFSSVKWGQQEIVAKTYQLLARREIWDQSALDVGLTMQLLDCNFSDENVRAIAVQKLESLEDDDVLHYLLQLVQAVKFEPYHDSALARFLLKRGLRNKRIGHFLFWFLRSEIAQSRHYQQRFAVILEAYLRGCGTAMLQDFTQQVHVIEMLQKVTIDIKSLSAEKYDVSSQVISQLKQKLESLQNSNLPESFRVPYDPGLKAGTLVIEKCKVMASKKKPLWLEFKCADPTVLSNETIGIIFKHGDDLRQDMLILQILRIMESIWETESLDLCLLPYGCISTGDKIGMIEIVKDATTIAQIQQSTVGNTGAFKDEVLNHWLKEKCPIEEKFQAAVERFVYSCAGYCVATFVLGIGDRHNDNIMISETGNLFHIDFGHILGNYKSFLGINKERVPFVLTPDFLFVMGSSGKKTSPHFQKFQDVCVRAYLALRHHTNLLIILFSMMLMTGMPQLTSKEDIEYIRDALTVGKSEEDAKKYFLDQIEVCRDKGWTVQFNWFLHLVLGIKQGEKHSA
In words: Raw264.7 p110 γ cellular assay (phospho-AKT). Format: cell-based. The conditions noted are these: serum-starved RAW264.7 cells stimulated with C5a. From the text:
(b) PI3K-γ Selective Assay
Briefly, serum-starved PAW264.7 cells are stimulated with a known GPCR agonist C5a. […] Cells can be treated with test compounds prior to, simultaneously with, or subsequent to the stimulation by C5a. RAW 264.7 cells respond to the complement component fragment C5a through activation of the C5a receptor, and the C5a receptor activates macrophages and induces cell migration.

T1 sequence (P48736 whole entry): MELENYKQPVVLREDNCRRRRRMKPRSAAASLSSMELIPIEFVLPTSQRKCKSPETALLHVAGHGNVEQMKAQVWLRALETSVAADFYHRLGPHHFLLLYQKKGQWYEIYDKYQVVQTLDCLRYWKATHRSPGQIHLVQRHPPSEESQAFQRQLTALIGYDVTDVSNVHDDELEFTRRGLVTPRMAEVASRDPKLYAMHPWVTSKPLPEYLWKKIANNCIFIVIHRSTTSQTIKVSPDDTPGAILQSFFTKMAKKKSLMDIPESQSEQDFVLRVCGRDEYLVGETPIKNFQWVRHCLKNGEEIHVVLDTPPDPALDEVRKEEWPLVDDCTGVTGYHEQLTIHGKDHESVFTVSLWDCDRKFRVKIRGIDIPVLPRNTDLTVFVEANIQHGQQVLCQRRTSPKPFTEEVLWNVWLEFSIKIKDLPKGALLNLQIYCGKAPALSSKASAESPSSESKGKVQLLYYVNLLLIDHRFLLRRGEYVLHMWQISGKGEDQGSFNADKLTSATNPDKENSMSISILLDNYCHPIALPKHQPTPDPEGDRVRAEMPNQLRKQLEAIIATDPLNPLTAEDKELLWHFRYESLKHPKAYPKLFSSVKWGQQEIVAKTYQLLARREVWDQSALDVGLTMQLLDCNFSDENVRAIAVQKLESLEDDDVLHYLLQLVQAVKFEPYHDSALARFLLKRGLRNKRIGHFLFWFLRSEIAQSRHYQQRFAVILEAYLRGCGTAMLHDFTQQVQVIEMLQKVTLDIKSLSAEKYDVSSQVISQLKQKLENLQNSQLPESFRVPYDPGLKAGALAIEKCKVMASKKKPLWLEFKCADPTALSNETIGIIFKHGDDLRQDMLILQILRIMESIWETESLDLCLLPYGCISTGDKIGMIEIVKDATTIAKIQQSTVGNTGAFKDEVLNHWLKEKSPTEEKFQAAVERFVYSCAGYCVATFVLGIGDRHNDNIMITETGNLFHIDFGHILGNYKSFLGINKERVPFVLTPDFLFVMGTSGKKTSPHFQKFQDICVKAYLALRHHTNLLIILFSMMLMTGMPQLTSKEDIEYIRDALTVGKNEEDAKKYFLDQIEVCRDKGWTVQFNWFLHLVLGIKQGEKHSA
From the text for RAJI p110 δ: (a) PI3K-δ Selective Assay
Reduction of phospho-AKT is indicative of compounds that may inhibit B-cell proliferation and function in certain diseases.

With `C[C@H](NC(=O)c1nc(C#N)cnc1N)c1cc2cccc(Cl)c2c(=O)n1-c1ccccc1` [Compound 111], the IC50 at PI3K γ is 0.1 to 1 µM; on PI3K δ it was 0.1 to 1 µM; against PI3K α, > 10 µM; against PI3K β it was 0.1 to 1 µM; against RAJI p110 δ, < 0.1 µM; on Raw264.7 p110 γ it was 0.1 to 1 µM.
On to `C[C@H](NC(=O)c1nc(-c2cscn2)cnc1N)c1cc2cccc(Cl)c2c(=O)n1-c1ccccc1` [Compound 112], for which the IC50 is 0.1 to 1 µM against PI3K γ; > 10 µM against PI3K δ; 1 to 10 µM against PI3K α; 1 to 10 µM at PI3K β; 0.1 to 1 µM on RAJI p110 δ; < 0.1 µM against Raw264.7 p110 γ.
On to `C[C@H](NC(=O)c1nc(-c2csc(S(C)(=O)=O)n2)cnc1N)c1cc2cccc(Cl)c2c(=O)n1-c1ccccc1` [Compound 113], for which the IC50 on PI3K γ was 1 to 10 µM; on PI3K δ, > 10 µM; against PI3K α, > 10 µM; against PI3K β it was 1 to 10 µM; against RAJI p110 δ it was 1 to 10 µM; on Raw264.7 p110 γ it was 0.1 to 1 µM.
`C[C@H](NC(=O)c1c(N)nn2cccnc12)c1cc2cccc(-c3ccccc3)c2c(=O)n1-c1ccccc1` [Compound 115]: the IC50 against PI3K γ was 0.1 to 1 µM; at PI3K δ it was 1 to 10 µM; on PI3K α, 1 to 10 µM; on PI3K β, > 10 µM; on RAJI p110 δ, 0.1 to 1 µM; against Raw264.7 p110 γ, < 0.1 µM.
As to `COc1cc(-c2cccc3cc([C@H](C)NC(=O)c4c(N)nn5cccnc45)n(-c4ccccc4)c(=O)c23)ccn1` [Compound 116], the IC50 was 0.1 to 1 µM against PI3K γ; 1 to 10 µM against PI3K δ; 1 to 10 µM against PI3K α; 1 to 10 µM on PI3K β; < 0.1 µM on RAJI p110 δ; < 0.1 µM against Raw264.7 p110 γ.
As to `C[C@H](NC(=O)c1c(N)nn2cccnc12)c1cc2cccc(-c3ccncc3)c2c(=O)n1-c1ccccc1` [Compound 117], the IC50 against PI3K γ is 0.1 to 1 µM; on PI3K δ it was 1 to 10 µM; against PI3K α, 1 to 10 µM; against PI3K β, > 10 µM; against RAJI p110 δ, < 0.1 µM; at Raw264.7 p110 γ, < 0.1 µM.
Consider `C[C@H](NC(=O)c1c(N)nn2cccnc12)c1cc2cccc(-c3cccnc3)c2c(=O)n1-c1ccccc1` [Compound 118], for which the IC50 is 0.1 to 1 µM on PI3K γ; 0.1 to 1 µM against PI3K δ; 1 to 10 µM against PI3K α; > 10 µM at PI3K β; < 0.1 µM against RAJI p110 δ; < 0.1 µM on Raw264.7 p110 γ.
Consider `COc1cncc(-c2cccc3cc([C@H](C)NC(=O)c4c(N)nn5cccnc45)n(-c4ccccc4)c(=O)c23)c1` [Compound 119], for which the IC50 was < 0.1 µM at PI3K γ; 0.1 to 1 µM against PI3K δ; 1 to 10 µM against PI3K α; > 10 µM on PI3K β; < 0.1 µM at RAJI p110 δ; < 0.1 µM on Raw264.7 p110 γ.
For `C[C@H](NC(=O)c1c(N)nn2cccnc12)c1cc2cccc(-c3cncc(NS(C)(=O)=O)c3)c2c(=O)n1-c1ccccc1` [Compound 120], the IC50 at PI3K γ was 0.1 to 1 µM; against PI3K δ, 0.1 to 1 µM; against PI3K α, 1 to 10 µM; at PI3K β it was > 10 µM; against RAJI p110 δ it was < 0.1 µM; at Raw264.7 p110 γ, 0.1 to 1 µM.
As to `C[C@H](NC(=O)c1c(N)nn2cccnc12)c1cc2cccc(-c3ccc(=O)n(C)c3)c2c(=O)n1-c1ccccc1` [Compound 121], the IC50 was < 0.1 µM against PI3K γ; 0.1 to 1 µM on PI3K δ; > 10 µM against PI3K α; > 10 µM against PI3K β; < 0.1 µM against RAJI p110 δ; < 0.1 µM against Raw264.7 p110 γ.
As for `Cc1cccc2cc([C@H](C)NC(=O)c3c(N)nn4cccnc34)n(-c3ccccc3)c(=O)c12` [Compound 123], the IC50 was 0.1 to 1 µM against PI3K γ; 1 to 10 µM on PI3K δ; 1 to 10 µM on PI3K α; 1 to 10 µM on PI3K β; < 0.1 µM at RAJI p110 δ; < 0.1 µM against Raw264.7 p110 γ.
